Test system: HT-1080 (ATCC, CCL-121) cells
Test: HT-1080 cell viability assay with ferroptosis inducer RSL3 (Cell Titer-Glo)
Type: cell-based
Conditions: Homo sapiens; HT-1080 cells treated with RSL3; 3-fold, 10-point dilution, 1.1 μM highest concentration; Table 3; read-out: EC50 (nM), ferroptosis inhibitory activity
Summary of the method: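 HT-1080 cells (6000 per well) were cultured overnight at 37 °C, then co-treated with RSL3 and compound in a 3-fold, 10-point series topping at 1.1 μM. Viability was read by CellTiter-Glo luminescence and normalized to untreated controls. EC50 came from a sigmoidal non-linear regression fit.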

SMILES | EC50
COCCn1c(=O)n(C)c2ccc(Nc3ccc(N4CCC(C(F)(F)F)C4)cc3C)cc21 (stereo not shown) [Compound 620, 3-(2-methoxyethyl)-1-methyl-5-((2-methyl-4-(3-(trifluoromethyl)pyrrolidin-1-yl)phenyl)amino)-1,3-dihydro-2H-benzo[d]imidazol-2-one] | 0.1 to 100 nM
Cc1cc(N2CC(OC(F)(F)F)C2)ccc1Nc1ccc2c(c1)OCC(=O)N2 [Compound 621, 7-((2-methyl-4-(3-(trifluoromethoxy)azetidin-1-yl)phenyl)amino)-2H-benzo[b][1,4]oxazin-3(4H)-one] | 0.1 to 100 nM
Cc1cc(N2CCC(C(F)(F)F)CC2)ccc1Nc1ccc2nccn2c1 [Compound 624, N-(2-methyl-4-(4-(trifluoromethyl)piperidin-1-yl)phenyl) imidazo[1,2-a]pyridin-6-amine] | 0.1 to 100 nM
Cc1cc(N2CCC(C(F)(F)F)CC2)ccc1Nc1ccn2ncc(C(N)=O)c2c1 [Compound 625, 5-((2-methyl-4-(4-(trifluoromethyl)piperidin-1-yl)phenyl)amino) pyrazolo[1,5-a]pyridine-3-carboxamide] | 0.1 to 100 nM
Cc1cc(N2CCC(C(F)(F)F)CC2)ccc1Nc1ccc2ncc(C(N)=O)n2c1 [Compound 630, 6-((2-methyl-4-(4-(trifluoromethyl)piperidin-1-yl)phenyl)amino) imidazo[1,2-a]pyridine-3-carboxamide] | 0.1 to 100 nM
Cc1cc(N2CCC(C(F)(F)F)CC2)ccc1Nc1ccc2c(c1)OCC(=O)N(C)C2 [Compound 631, 4-methyl-8-((2-methyl-4-(4-(trifluoromethyl)piperidin-1-yl)phenyl)amino)-4,5-dihydrobenzo[f][1,4]oxazepin-3(2H)-one] | 0.1 to 100 nM
Cc1cc(NC(C)(C)C)ccc1Nc1ccc2c(c1)OCC(=O)N2 [Compound 634, 7-((4-(tert-butylamino)-2-methylphenyl)amino)-2H-benzo[b][1,4]oxazin-3(4H)-one] | 0.1 to 100 nM
CCNc1ccc(Nc2ccc3c(c2)OCC(=O)N3)c(C)c1 [Compound 635, 7-((4-(ethylamino)-2-methylphenyl)amino)-2H-benzo[b][1,4]oxazin-3(4H)-one] | 0.1 to 100 nM
Cc1cc(N2C[C@@H](C)O[C@@H](C)C2)ccc1Nc1ccc2cn(C)nc2c1 [Compound 637, N-(4-((2S,6R)-2,6-dimethylmorpholino)-2-methylphenyl)-2-methyl-2H-indazol-6-amine] | 0.1 to 100 nM
Cc1cc(N2C[C@@H](C)O[C@@H](C)C2)ccc1Nc1ccc2cnn(C)c2c1 [Compound 638, N-(4-((2S,6R)-2,6-dimethylmorpholino)-2-methylphenyl)-1-methyl-1H-indazol-6-amine] | 0.1 to 100 nM
Cc1cc(N2CC(OC(C)C)C2)ccc1Nc1ccc2c(c1)OCC(=O)N2 [Compound 640, 7-((4-(3-isopropoxyazetidin-1-yl)-2-methylphenyl)amino)-2H-benzo[b][1,4]oxazin-3(4H)-one] | 0.1 to 100 nM
Cc1cc(N2CC3CC3C2)ccc1Nc1ccc2c(c1)OCC(=O)N2 (stereo not shown) [Compound 641, 7-((4-(3-azabicyclo[3.1.0]hexan-3-yl)-2-methylphenyl)amino)-2H-benzo[b][1,4]oxazin-3(4H)-one] | 0.1 to 100 nM
CC1CC(C(F)(F)F)CCN1c1ccc(Nc2ccc3c(c2)OCC(=O)N3)cc1 (stereo not shown) [Compound 642, 7-((4-(2-methyl-4-(trifluoromethyl)piperidin-1-yl)phenyl)amino)-2H-benzo[b][1,4]oxazin-3(4H)-one] | 0.1 to 100 nM
Cc1cc(N2CCC(C(F)(F)F)CC2)ccc1Nc1ccc2c(c1)NCCC(=O)N2 [Compound 643, 7-((2-methyl-4-(4-(trifluoromethyl)piperidin-1-yl)phenyl)amino)-1,3,4,5-tetrahydro-2H-benzo[b][1,4]diazepin-2-one] | 0.1 to 100 nM
Cc1cc(N2CCC(C(F)(F)F)CC2)ccc1Nc1ccc2c(c1)C(=O)NCC(=O)N2 [Compound 644, 7-((2-methyl-4-(4-(trifluoromethyl)piperidin-1-yl)phenyl)amino)-3,4-dihydro-1H-benzo[e][1,4]diazepine-2,5-dione] | 0.1 to 100 nM
Cc1cc(N2CCC(C(F)(F)F)CC2)ccc1Nc1ccc2c(c1)OCC(O)C(=O)N2 (stereo not shown) [Compound 646, 3-hydroxy-8-((2-methyl-4-(4-(trifluoromethyl)piperidin-1-yl)phenyl)amino)-2,3-dihydrobenzo[b][1,4]oxazepin-4(5H)-one] | 0.1 to 100 nM
Cc1cc(N2C[C@@H](C)O[C@@H](C)C2)ccc1Nc1ccc2cn[nH]c2c1 [Compound 648, N-(2-methyl-4-((2S,6R)-2,6-dimethylmorpholino)phenyl)-1H-indazol-6-amine] | 0.1 to 100 nM
Cc1cc(N2CCC(C(F)(F)F)CC2)ccc1Nc1ccc2c(c1)COCC(=O)N2 [Compound 650, 7-((2-methyl-4-(4-(trifluoromethyl)piperidin-1-yl)phenyl)amino)-1,5-dihydrobenzo[e][1,4]oxazepin-2(3H)-one] | 0.1 to 100 nM
Cc1cc(N2CC(O)(C(F)(F)F)C2)ccc1Nc1ccc2c(c1)ncn2C [Compound 651, 1-[3-methyl-4-[(1-methylbenzimidazol-5-yl)amino]phenyl]-3-(trifluoromethyl)azetidin-3-ol] | 0.1 to 100 nM
Cc1cc(N2CC(OC(F)F)C2)ccc1Nc1ccc2c(c1)OCC(=O)N2 [Compound 652, 7-[4-[3-(difluoromethoxy)azetidin-1-yl]-2-methyl-anilino]-4H-1,4-benzoxazin-3-one] | 0.1 to 100 nM
Cc1cc(OC(F)F)ccc1Nc1ccc2c(c1)OCC(=O)N2 [Compound 653, 7-[4-(difluoromethoxy)-2-methyl-anilino]-4H-1,4-benzoxazin-3-one] | 0.1 to 100 nM
CC1=NCC(=O)Nc2ccc(Nc3ccc(N4CCC(C(F)(F)F)CC4)cc3C)cc21 [Compound 656, 5-methyl-7-[2-methyl-4-[4-(trifluoromethyl)-1-piperidyl]anilino]-1,3-dihydro-1,4-benzodiazepin-2-one] | 0.1 to 100 nM

Now from value to compound:

EC50 | SMILES
0.1 to 100 nM | Cc1cc(N2CCC(F)(F)C2)ccc1Nc1ccc2c(c1)OCCC(=O)N2 [Compound 622, 8-((4-(3,3-difluoropyrrolidin-1-yl)-2-methylphenyl)amino)-2,3-dihydrobenzo[b][1,4]oxazepin-4(5H)-one]
0.1 to 100 nM | Cc1cc(N2CC(C)(F)C2)ccc1Nc1ccc2c(c1)OCCC(=O)N2 [Compound 623]
0.1 to 100 nM | Cc1cc(N2CC(F)(F)C2)ccc1Nc1ccc2c(c1)OCCC(=O)N2 [Compound 626, 8-((4-(3,3-difluoroazetidin-1-yl)-2-methylphenyl)amino)-2,3-dihydrobenzo[b][1,4]oxazepin-4(5H)-one]
0.1 to 100 nM | Cc1cc(N2CC(F)(F)C2)ccc1Nc1ccc2c(c1)OCC(N)C(=O)N2 (stereo not shown) [Compound 627, 3-amino-8-((4-(3,3-difluoroazetidin-1-yl)-2-methylphenyl)amino)-2,3-dihydrobenzo[b][1,4]oxazepin-4(5H)-one]
0.1 to 100 nM | Cc1cc(N2CCC(C(F)(F)F)C2)ccc1Nc1ccc2c(c1)OCCC(=O)N2 (stereo not shown) [Compound 628, 8-((2-methyl-4-(3-(trifluoromethyl)pyrrolidin-1-yl)phenyl)amino)-2,3-dihydrobenzo[b][1,4]oxazepin-4(5H)-one]
0.1 to 100 nM | Cc1cc(N2CCC(F)(F)CC2)ccc1Nc1ccc2c(c1)OCCC(=O)N2 [Compound 629, 8-((4-(4,4-difluoropiperidin-1-yl)-2-methylphenyl)amino)-2,3-dihydrobenzo[b][1,4]oxazepin-4(5H)-one]
0.1 to 100 nM | Cc1cc(N2CC(O)(C(F)(F)F)C2)ccc1Nc1ccc2c(c1)OCC(=O)N2 [Compound 632, 7-({4-[3-hydroxy-3-(trifluoromethyl)azetidin-1-yl]-2-methylphenyl}amino)-2,4-dihydro-1,4-benzoxazin-3-one]
0.1 to 100 nM | COC1(C(F)(F)F)CN(c2ccc(Nc3ccc4c(c3)OCC(=O)N4)c(C)c2)C1 [Compound 633, 7-({4-[3-methoxy-3-(trifluoromethyl)azetidin-1-yl]-2-methylphenyl}amino)-2,4-dihydro-1,4-benzoxazin-3-one]
0.1 to 100 nM | Cc1cc(N2CC(F)(F)C(F)(F)C2)ccc1Nc1ccc2c(c1)OCC(=O)N2 [Compound 636, 7-((2-methyl-4-(3,3,4,4-tetrafluoropyrrolidin-1-yl)phenyl)amino)-2H-benzo[b][1,4]oxazin-3(4H)-on]
0.1 to 100 nM | COC1(C)CN(c2ccc(Nc3ccc4c(c3)OCC(=O)N4)c(C)c2)C1 [Compound 639, 7-((4-(3-methoxy-3-methylazetidin-1-yl)-2-methylphenyl)amino)-2H-benzo[b][1,4] oxazin-3(4H)-one]
0.1 to 100 nM | COC1(C(F)(F)F)CN(c2ccc(Nc3ccc4c(c3)OCCC(=O)N4)c(C)c2)C1 [Compound 645, 8-[4-[3-methoxy-3-(trifluoromethyl)azetidin-1-yl]-2-methyl-anilino]-3,5-dihydro-2H-1,5-benzoxazepin-4-one]
0.1 to 100 nM | COC1(C(F)(F)F)CCN(c2ccc(Nc3ccc4c(c3)OCCC(=O)N4)c(C)c2)C1 (stereo not shown) [Compound 647, 8-((4-(3-methoxy-3-(trifluoromethyl)pyrrolidin-1-yl)-2-methylphenyl)amino)-2,3-dihydrobenzo[b][1,4]oxazepin-4(5H)-one]
0.1 to 100 nM | Cc1cc(N2CC(O)(C(F)(F)F)C2)ccc1Nc1ccc2c(c1)OCCC(=O)N2 [Compound 649, 8-[4-[3-hydroxy-3-(trifluoromethyl)azetidin-1-yl]-2-methyl-anilino]-3,5-dihydro-2H-1,5-benzoxazepin-4-one]
0.1 to 100 nM | Cc1cc(N2CCC(C(F)F)CC2)ccc1Nc1ccc2c(c1)OCC(=O)N2 [Compound 654, 7-[4-[4-(difluoromethyl)-1-piperidyl]-2-methyl-anilino]-4H-1,4-benzoxazin-3-one]
0.1 to 100 nM | Cc1cc(N2CC(C(F)F)C2)ccc1Nc1ccc2c(c1)OCC(=O)N2 [Compound 655, 7-[4-[3-(difluoromethyl)azetidin-1-yl]-2-methyl-anilino]-4H-1,4-benzoxazin-3-one]

— patent publication US20240327393A1 (SIRONAX LTD., priority 2021, published 2024)
